Experimental data as given in ChEMBL document CHEMBL3045331, “A clubbed quinazolinone and 4-thiazolidinone as potential antimicrobial agents” (2012).
In brackets after ≈: the same amount, converted by molar mass.

Key:
Type in all cases: functional
Pseudomonas aeruginosa = assay: Antibacterial activity against Pseudomonas aeruginosa MTCC-1688 after 24 hr by serial broth dilution method; details: MTCC-1688, 24 h
Candida albicans = assay: Antifungal activity against Candida albicans MTCC 227 after 48 hr by spot subculture method; details: MTCC 227, 48 h
Streptococcus pyogenes = assay: Antibacterial activity against Streptococcus pyogenes MTCC-442 after 24 hr by serial broth dilution method; details: MTCC-442, 24 h
Aspergillus clavatus = assay: Antifungal activity against Aspergillus clavatus MTCC 1323 after 48 hr by spot subculture method; details: MTCC 1323, 48 h
Aspergillus niger = assay: Antifungal activity against Aspergillus niger MTCC 282 after 48 hr by spot subculture method; details: MTCC 282, 48 h
Escherichia coli = assay: Antibacterial activity against Escherichia coli MTCC 443 after 24 hr by serial broth dilution method; details: MTCC 443, 24 h
Staphylococcus aureus = assay: Antibacterial activity against Staphylococcus aureus MTCC-96 after 24 hr by serial broth dilution method; details: MTCC-96, 24 h

Structure (SMILES) | MIC99 (Pseudomonas aeruginosa) | MIC99 (Candida albicans) | MIC99 (Streptococcus pyogenes) | MIC99 (Aspergillus clavatus) | MIC99 (Aspergillus niger) | MIC99 (Escherichia coli) | MIC99 (Staphylococcus aureus)
Cc1ccc(-c2nc3ccccc3c(=O)n2-c2ccc(C(=O)NN3C(=O)/C(=C/c4ccccc4)SC3c3ccc(O)cc3)cc2)cc1 (stereo not given) | 500 µg/mL (≈ 785 µM) | 500 µg/mL (≈ 785 µM) | 100 µg/mL (≈ 157 µM) | 1000 µg/mL (≈ 1570 µM) | 1000 µg/mL (≈ 1570 µM) | 200 µg/mL (≈ 314 µM) | 500 µg/mL (≈ 785 µM)
Cc1ccc(-c2nc3ccccc3c(=O)n2-c2ccc(C(=O)NN3C(=O)/C(=C/c4ccc(O)cc4)SC3c3ccc(O)cc3)cc2)cc1 (stereo not given) | 500 µg/mL (≈ 766 µM) | 1000 µg/mL (≈ 1530 µM) | 50 µg/mL (≈ 76.6 µM) | 100 µg/mL (≈ 153 µM) | 1000 µg/mL (≈ 1530 µM) | 100 µg/mL (≈ 153 µM) | 100 µg/mL (≈ 153 µM)
Cc1ccc(-c2nc3ccccc3c(=O)n2-c2ccc(C(=O)NN3C(=O)/C(=C/c4c(Cl)cccc4Cl)SC3c3ccc(O)cc3)cc2)cc1 (stereo not given) | 200 µg/mL (≈ 283 µM) | 500 µg/mL (≈ 709 µM) | 100 µg/mL (≈ 142 µM) | 1000 µg/mL (≈ 1420 µM) | 100 µg/mL (≈ 142 µM) | 50 µg/mL (≈ 70.9 µM) | 100 µg/mL (≈ 142 µM)
Cc1ccc(-c2nc3ccccc3c(=O)n2-c2ccc(C(=O)NN3C(=O)/C(=C/c4cccc([N+](=O)[O-])c4)SC3c3ccc(O)cc3)cc2)cc1 (stereo not given) | 100 µg/mL (≈ 147 µM) | 100 µg/mL (≈ 147 µM) | 500 µg/mL (≈ 733 µM) | 500 µg/mL (≈ 733 µM) | 100 µg/mL (≈ 147 µM) | 25 µg/mL (≈ 36.7 µM) | 50 µg/mL (≈ 73.3 µM)
COC1=CC(=O)C[C@@H](C)[C@]12Oc1c(Cl)c(OC)cc(OC)c1C2=O [GRISEOFULVIN] | – | 500 µg/mL (≈ 1420 µM) | – | 100 µg/mL (≈ 283 µM) | 100 µg/mL (≈ 283 µM) | – | –
Cc1ccc(-c2nc3ccccc3c(=O)n2-c2ccc(C(=O)NN3C(=O)/C(=C/c4ccc5ccccc5c4O)SC3c3ccc(O)cc3)cc2)cc1 (stereo not given) | 50 µg/mL (≈ 71.1 µM) | 100 µg/mL (≈ 142 µM) | 100 µg/mL (≈ 142 µM) | 100 µg/mL (≈ 142 µM) | 1000 µg/mL (≈ 1420 µM) | 100 µg/mL (≈ 142 µM) | 100 µg/mL (≈ 142 µM)
COc1ccc(/C=C2\SC(c3ccc(O)cc3)N(NC(=O)c3ccc(-n4c(-c5ccc(C)cc5)nc5ccccc5c4=O)cc3)C2=O)c(O)c1 (stereo not given) | 200 µg/mL (≈ 293 µM) | 500 µg/mL (≈ 732 µM) | 500 µg/mL (≈ 732 µM) | 500 µg/mL (≈ 732 µM) | 1000 µg/mL (≈ 1460 µM) | 100 µg/mL (≈ 146 µM) | 250 µg/mL (≈ 366 µM)
Cc1ccc(-c2nc3ccccc3c(=O)n2-c2ccc(C(=O)NN3C(=O)/C(=C/c4ccc(N(C)C)cc4)SC3c3ccc(O)cc3)cc2)cc1 (stereo not given) | 200 µg/mL (≈ 294 µM) | 1000 µg/mL (≈ 1470 µM) | 100 µg/mL (≈ 147 µM) | 500 µg/mL (≈ 736 µM) | 100 µg/mL (≈ 147 µM) | 25 µg/mL (≈ 36.8 µM) | 1000 µg/mL (≈ 1470 µM)
Cc1ccc(-c2nc3ccccc3c(=O)n2-c2ccc(C(=O)NN3C(=O)/C(=C/c4ccccc4Cl)SC3c3ccc(O)cc3)cc2)cc1 (stereo not given) | 500 µg/mL (≈ 745 µM) | 1000 µg/mL (≈ 1490 µM) | 100 µg/mL (≈ 149 µM) | 1000 µg/mL (≈ 1490 µM) | 1000 µg/mL (≈ 1490 µM) | 200 µg/mL (≈ 298 µM) | 500 µg/mL (≈ 745 µM)
Cc1ccc(-c2nc3ccccc3c(=O)n2-c2ccc(C(=O)NN3C(=O)/C(=C/c4cc(Br)ccc4O)SC3c3ccc(O)cc3)cc2)cc1 (stereo not given) | 500 µg/mL (≈ 683 µM) | 500 µg/mL (≈ 683 µM) | 100 µg/mL (≈ 137 µM) | 100 µg/mL (≈ 137 µM) | 1000 µg/mL (≈ 1370 µM) | 500 µg/mL (≈ 683 µM) | 250 µg/mL (≈ 342 µM)
Cc1ccc(-c2nc3ccccc3c(=O)n2-c2ccc(C(=O)NN3C(=O)/C(=C/c4ccc(F)cc4)SC3c3ccc(O)cc3)cc2)cc1 (stereo not given) | 50 µg/mL (≈ 76.4 µM) | 100 µg/mL (≈ 153 µM) | 250 µg/mL (≈ 382 µM) | 1000 µg/mL (≈ 1530 µM) | 500 µg/mL (≈ 764 µM) | 500 µg/mL (≈ 764 µM) | 100 µg/mL (≈ 153 µM)
COc1cc(/C=C2\SC(c3ccc(O)cc3)N(NC(=O)c3ccc(-n4c(-c5ccc(C)cc5)nc5ccccc5c4=O)cc3)C2=O)cc(OC)c1OC (stereo not given) | 100 µg/mL (≈ 138 µM) | 1000 µg/mL (≈ 1380 µM) | 200 µg/mL (≈ 275 µM) | 1000 µg/mL (≈ 1380 µM) | 100 µg/mL (≈ 138 µM) | 100 µg/mL (≈ 138 µM) | 100 µg/mL (≈ 138 µM)
COc1ccc(/C=C2\SC(c3ccc(O)cc3)N(NC(=O)c3ccc(-n4c(-c5ccc(C)cc5)nc5ccccc5c4=O)cc3)C2=O)cc1 (stereo not given) | 500 µg/mL (≈ 750 µM) | 1000 µg/mL (≈ 1500 µM) | 500 µg/mL (≈ 750 µM) | 100 µg/mL (≈ 150 µM) | 100 µg/mL (≈ 150 µM) | 100 µg/mL (≈ 150 µM) | 500 µg/mL (≈ 750 µM)
CC1(C)S[C@@H]2[C@H](NC(=O)[C@H](N)c3ccccc3)C(=O)N2[C@H]1C(=O)O [AMPICILLIN] | 100 µg/mL (≈ 286 µM) | – | 100 µg/mL (≈ 286 µM) | – | – | 100 µg/mL (≈ 286 µM) | 250 µg/mL (≈ 715 µM)
Cc1ccc(-c2nc3ccccc3c(=O)n2-c2ccc(C(=O)NN3C(=O)/C(=C/c4ccc(Cl)cc4)SC3c3ccc(O)cc3)cc2)cc1 (stereo not given) | 100 µg/mL (≈ 149 µM) | 100 µg/mL (≈ 149 µM) | 500 µg/mL (≈ 745 µM) | 1000 µg/mL (≈ 1490 µM) | 1000 µg/mL (≈ 1490 µM) | 50 µg/mL (≈ 74.5 µM) | 500 µg/mL (≈ 745 µM)
COc1ccccc1/C=C1\SC(c2ccc(O)cc2)N(NC(=O)c2ccc(-n3c(-c4ccc(C)cc4)nc4ccccc4c3=O)cc2)C1=O (stereo not given) | 100 µg/mL (≈ 150 µM) | 500 µg/mL (≈ 750 µM) | 500 µg/mL (≈ 750 µM) | 500 µg/mL (≈ 750 µM) | 500 µg/mL (≈ 750 µM) | 500 µg/mL (≈ 750 µM) | 100 µg/mL (≈ 150 µM)
